Source: patent US20080045596A1, “Ep2 Receptor Agonists” (priority 2003, published 2008)
Read-outs that look alike come from different tables or passages of the source.

Key:
[1] = test system: human myometrium; assay: Electrical field stimulation (EFS) induced contractions of human myometrial strips
Description: The following describes an in vitro functional assay, using human myometrial smooth muscle, to determine the affinity of the test compounds at the EP2 receptor in human tissues.
Sections of human myometrium were prepared from samples of surgically removed uterus longitudinal myometrial muscle strips (2 mm wide by 10 mm long) were then cut and suspended between stainless steel hooks in organ chambers containing oxygenated (95% O2/5% CO2) Krebs solution at 37° C. The composition of the Krebs solution was as follows: NaCl (118.2 mM), KCl (4.69 mM), MgSO4.7H2O (1.18 mM), KH2PO4 (1.19 mM), glucose (11.1 mM), NaHCO3 (25.0 mM), CaCl2.6H2O (2.5 mM), indomethacin 3×10^−6M.
Tissues were placed under a tension equivalent to 25 mN and left overnight at room temperature. The following day the tissues were maintained at 37° C., washed and placed under a tension of 15 mN then allowed to equilibrate for a period of at least 30 minutes. Responses were recorded using isometric transducers coupled to an Apple Macintosh computer via a MacLab interface. After 60 minutes, the muscle sections of the human myometrium were stimulated electrically (15 ms pulse width, for 10 s every 100 s at 15V and 0.5-40 Hz) using parallel platinum wire electrodes and a Multistim D330 pulse stimulator. Upon electrical stimulation, the strips of human myometrial smooth muscle responded with a rapid contraction. Once the response to electrical stimulation had stabilised (stimulated responses differed by no more than 10%), the strips were exposed to increasing concentrations of test compounds (1×10^−7 to 1×10^−4M, incubated for at least 15 minutes at each concentration). At the end of the experiment, application of sodium nitroprusside (SNP, a nitric oxide donor that causes smooth muscle relaxation) (1×10^−4M) was used to produce a standard relaxatory response. To determine the affinity of the compounds, the concentration of test compound required to produce half-maximal effects (EC50) was calculated, as was the maximum response (calculated as a percentage of the standard response produced with SNP).

[2] = test system: interferon gamma release by lymphocytes; assay: Lymphocyte assay: interferon gamma release; assay type: cell-based, human; settings: FIG. 11, two donors
From the text: Lymphocytes are mononuclear leukocytes, which participate in specific immune responses to foreign antigens and in the manifestation of auto-immune diseases. T lymphocytes produce IL-2, a key factor for lymphocyte activation and proliferation, in response to antigen stimulation via the CD3-T cell receptor complex and the pathway involved in this response is the NF-AT. […] A lymphocyte assay was designed to model this response and to determine the effect of test compound on IL-2 production by anti-CD3-stimulated T cells isolated from peripheral blood. This assay uses a sub-optimal dose of an anti-CD3 monoclonal antibody (OKT3, 25 ng/ml) immobilised to a 96-well plate to stimulate a T cell response. The level of IL-2 released into the cell culture supernatants was quantified using a standard sandwich ELISA. Similarly, other cytokines such as TNFα and IFN-γ can also be measured in the same assay. […]
Lymphocytes were then seeded to a 96-well plate pre-coated with anti-CD3 monoclonal antibody (OKT3) at 25 ng/ml and immediately, the test compounds (Peak 1, mixture 1 acid; Peak 1, mixture 2 acid; AH-13205 racemate; PGE2) in appropriate dilutions were added to corresponding wells according to the experimental design. […] The levels of IFN-γ was assessed by using the ProteoPlex 16 well human cytokine array assay kit according to the manufacturer's instruction.

[3] = biological target: T1, human EP3 receptor (Homo sapiens, UniProt P43115); assay: Radioligand ([3H]PGE2) competition displacement binding, human EP3 receptor membranes; settings: human EP3, [3H]PGE2 displacement
T1 construct: expressed in transfected cells
T1 sequence (P43115 1-390): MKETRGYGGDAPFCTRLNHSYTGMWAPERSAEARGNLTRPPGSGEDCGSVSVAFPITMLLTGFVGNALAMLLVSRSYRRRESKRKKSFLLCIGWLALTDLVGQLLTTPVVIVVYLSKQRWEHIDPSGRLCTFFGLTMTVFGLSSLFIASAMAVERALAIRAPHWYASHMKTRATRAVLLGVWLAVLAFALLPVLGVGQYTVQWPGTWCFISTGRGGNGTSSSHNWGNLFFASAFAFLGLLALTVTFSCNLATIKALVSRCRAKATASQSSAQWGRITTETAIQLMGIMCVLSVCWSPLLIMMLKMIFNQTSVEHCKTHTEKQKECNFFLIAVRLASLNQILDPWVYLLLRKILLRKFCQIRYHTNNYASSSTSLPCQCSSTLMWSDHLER
Description: (§1) Membranes were prepared from cells stably transfected with human EP receptor cDNA. In brief, cells were cultured to confluency, scraped from culture flasks, and centrifuged (800 g, 8 minutes, 4° C.). Cells were twice washed in ice cold homogenisation buffer containing 10 mM Tris-HCl, 1 mM EDTA.2Na, 250 mM sucrose, 1 mM PMSF, 0.3 mM indomethacin, pH 7.4, homogenised and re-centrifuged as before. The supernatant was stored on ice and pellets re-homogenised and re-spun. Supernatants were pooled and centrifuged at 40000 g, 10 minutes, 4° C. Resultant membrane pellets were stored at −80° C. until use.
(§2) For assay, membranes expressing human EP4, EP3, EP2 or EP1 receptors were incubated in Millipore (MHVBN45) plates containing assay buffer, radiolabelled [^3H]PGE2 and 0.1 to 10 000 nM concentrations of compounds. Incubations were performed at suitable temperatures and for suitable times to allow equilibrium to be reached. Non-specific binding was determined in the presence of 10 uM PGE2. Bound and free radiolabel was separated by vacuum manifold filtration using appropriate wash buffers, and bound radiolabel was determined by scintillation counting. Constituents of each of the buffers are included in table 4 below.
(§3) The affinity or pKi of each compound for each receptor was calculated from the concentration causing 50% radioligand displacement (IC50) using the Cheng-Prusoff equation: […]
(§4) This approach follows that set out in Kenakin, T. P., Pharmacologic analysis of drug receptor interaction. Raven Press, New York, 2nd edition.

[4] = biological target: T2, human EP2 receptor (Homo sapiens, UniProt P43116); assay: cAMP production in HEK cells stably expressing the human EP2 receptor; assay type: cell-based; settings: 15 min stimulation, 4 experiments, logarithm of EC50
T2 construct: expressed in transfected cells; host or cells: HEK cells (HEK-EP2)
Description: The following describes an in vitro assay to determine the effect of compounds on cyclase production, that is, to determine their functional efficacy at the EP2 receptor.
HEK cells stably expressing the human EP2 receptor were used for these assays. HEK-EP2 cells were cultured in 96-well, poly-L-lysine coated plates at a density of 50,000 cells/well, and grown to confluence in humidified […]/5% CO2 at 37° C. Culture medium was DMEM supplemented with 10% foetal bovine serum, 100 U/ml penicillin, […] streptomycin, 2.5 μg/ml fungizone, 2 mM glutamine, 250 μg/ml geneticin and 200 μg/ml zeocin.
On reaching confluence, culture media was rinsed off using DMEM with no additions, before 175 μl assay buffer (DMEM containing 1 mM 3-isobutyl-1-methylxanthine and 3 μM indomethacin) was added to each well. This was allowed to incubate for 1 hr before the cells were stimulated with the test compounds (in triplicate) at final concentrations of 10^−9M to 10^−5M for 15 minutes. The assay was terminated by the addition of 25 μl 1M hydrochloric acid. Plates were then frozen for a minimum of 12 hours or until required for radioligand displacement assay.
Plates were thawed quickly at 37° C., and neutralised with 25 μl 1M sodium hydroxide. 30 μl of supernatant was transferred to 96-well Millipore (MAFNOB) plates coated with 0.1% Polyethylenimine. These supernatants were diluted by addition of 90 μl cAMP assay buffer (50 mM Tris, 5 mM EDTA, pH 7.0). A cAMP standard curve (10^−11M to 10^−5M) was constructed. 15 μl of 3′:5′-cAMP-dependent protein kinase (final concentration 8 μg/well), and 15 μl [^3H]-cAMP (final concentration 2 nM/well) were added to each well.
Plates were incubated on ice for 2 hours, before bound and free radiolabel were separated by vacuum filtration harvesting on the Millipore manifold, using ice cold water as the termination buffer. […]
Radioactivity was determined using the Microbeta Trilux scintillation counter. cAMP accumulation was determined from the standard curve, and the values plotted as pmoles cAMP/well.

[5] = test system: TNFα production by LPS-stimulated monocytes; assay: Monocyte assay: LPS-induced TNFα secretion; assay type: cell-based, human; settings: Table 11/FIG. 14, mean of three donors, LPS 100 ng/ml, 24 h
From the text: Monocytes are peripheral mononuclear phagocytes that participate in inflammatory responses. TNFα production by monocytes plays an important role in inflammatory responses and can cause considerable tissue damage if the level remained unchecked. Inhibition of TNFα secretion by activated monocytes may provide an attractive therapy for the treatment of inflammatory conditions.
A 96 well in vitro assay was established to determine the effects of test compounds on LPS-induced TNFα secretion by human peripheral blood monocytes. The level of TNFα in assay supernatants was quantified using a standard sandwich ELISA.
Human peripheral blood mononuclear cells from healthy volunteers were isolated from whole blood by Ficoll-Hypaque density centrifugation and adherence to plastic. The non-adherent lymphocyte fraction was used to set up the lymphocyte assay and the adherent monocytes were then recovered by scraping and subsequently used in the monocyte assay.
For the monocyte assay, the cells were plated onto 96-well plates and pre-treated for 1 hour at 37° C./5% CO2 with the test compound (Peak 1, mixture 1 acid; Peak 1, mixture 2 acid; AH-13205 racemate), followed by the addition of LPS (100 ng/ml) to initiate the reaction. The plate was incubated for 24 hours and supernatants were recovered for the measurement of TNFα production by ELISA.

[6] = biological target: T2, human EP2 receptor; assay: Radioligand ([3H]PGE2) competition displacement binding, human EP2 receptor membranes; settings: for pKi EP2: human EP2, [3H]PGE2 displacement, Cheng-Prusoff, mean of 4 experiments
Description: as §1, §2, §3, §4

[7] = biological target: T3, human EP4 receptor (Homo sapiens, UniProt P35408); assay: Radioligand ([3H]PGE2) competition displacement binding, human EP4 receptor membranes; settings: human EP4, [3H]PGE2 displacement
T3 construct: expressed in transfected cells
Description: as §1, §2, §3, §4

T3 sequence (P35408 whole entry): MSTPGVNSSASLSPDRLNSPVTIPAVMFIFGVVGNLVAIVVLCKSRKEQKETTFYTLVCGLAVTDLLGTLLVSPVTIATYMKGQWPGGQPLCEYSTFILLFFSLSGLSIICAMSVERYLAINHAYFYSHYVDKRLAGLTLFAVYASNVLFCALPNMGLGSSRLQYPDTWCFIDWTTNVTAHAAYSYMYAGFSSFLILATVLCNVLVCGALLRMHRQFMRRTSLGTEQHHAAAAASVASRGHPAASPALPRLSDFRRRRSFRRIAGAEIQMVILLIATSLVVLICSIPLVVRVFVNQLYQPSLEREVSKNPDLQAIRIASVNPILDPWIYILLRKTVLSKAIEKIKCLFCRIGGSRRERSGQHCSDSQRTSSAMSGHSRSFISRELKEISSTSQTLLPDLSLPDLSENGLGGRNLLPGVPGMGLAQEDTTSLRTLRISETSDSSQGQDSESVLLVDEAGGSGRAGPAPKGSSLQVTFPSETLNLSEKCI
T2 sequence (P43116 whole entry): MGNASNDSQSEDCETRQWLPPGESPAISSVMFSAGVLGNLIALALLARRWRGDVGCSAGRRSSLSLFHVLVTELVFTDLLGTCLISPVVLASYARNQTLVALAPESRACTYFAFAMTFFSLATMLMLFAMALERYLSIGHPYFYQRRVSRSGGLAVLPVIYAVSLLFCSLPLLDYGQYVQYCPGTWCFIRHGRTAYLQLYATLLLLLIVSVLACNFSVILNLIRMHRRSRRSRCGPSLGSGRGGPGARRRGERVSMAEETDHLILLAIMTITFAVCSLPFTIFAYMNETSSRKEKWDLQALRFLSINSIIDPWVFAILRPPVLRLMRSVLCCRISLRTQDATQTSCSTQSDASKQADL

Row | Compound | effect on EFS-evoked contractions (words) [1] | pKi EP3 [3] | Mean Log (EC50), cAMP production [4] | pKi EP2 [6] | pKi EP4 [7] | also measured
1 | CCCCCC(O)c1ccc(C2CCC(=O)C2CCCCCCC(=O)O)cc1 (racemic) [AH13205, (±)-trans-2-[4-(1-hydroxyhexyl)phenyl]-5-oxo-cyclopentaneheptanoic acid, reference compound] | concentration-dependent inhibition |  |  |  |  | effect on EFS-evoked contractions (words) ([1]; listed as AH-13205): inhibit electrically-induced contractions
2 | CCCCC[C@H](O)c1ccc([C@H]2CCC(=O)[C@@H]2CCCCCCC(=O)O)cc1 (single isomer, unassigned) [Peak 1, Mixture 1 acid] | concentration-dependent inhibition |  |  |  |  | effect on interferon gamma release [2]: concentration-dependently inhibit interferon gamma release
3 | CCCCC[C@@H](O)c1ccc([C@H]2CCC(=O)[C@@H]2CCCCCCC(=O)O)cc1 (single isomer, unassigned; peak 1) [Peak 1, Mixture 2 acid] | concentration-dependent inhibition | 4.8 | −7.25 | 6.9 | 5.1 | maximum inhibition of EFS-induced contractions [1]: 57±2%; pEC50, inhibition of EFS-evoked response ([1]; 1×10^-7 to 1×10^-4 M): 5.3±0.1; Mean Log (EC50), inhibition of TNFα production by LPS-stimulated monocytes ([5]; logarithm of EC50): −5.172; EC50 ([5]; read-out: Mean EC50, inhibition of TNFα production by LPS-stimulated monocytes): 6.73 µM; selectivity for EP2 among the stereoisomers ([6]; from Table 5 pKi values, EP2 versus other EP receptors): most selective
4 | CCCCC[C@H](O)c1ccc([C@@H]2CCC(=O)[C@H]2CCCCCCC(=O)O)cc1 (single isomer, unassigned; peak 2) [Peak 2, Mixture 1 acid] |  | 4.8 | −6.49 | 5.8 | 4.5 | 
5 | CCCCC[C@@H](O)c1ccc([C@@H]2CCC(=O)[C@H]2CCCCCCC(=O)O)cc1 (single isomer, unassigned; peak 2) [Peak 2, Mixture 2 acid] |  | 4.7 | −6.39 | 6.3 | 4.8 | 
6 | CC(C)(C)NCC(O)c1cc(O)cc(O)c1 (centres unmarked) [terbutaline, reference compound] | no significant inhibitory effect |  |  |  |  | 
